The source of these data is patent US11634447B2 (priority 2012, dated 2023).

Structures are written as SMILES.

For the test, the system named is bacterial strain LF82 binding to the glycoprotein BSA-(Mannose)3. Put plainly: Bacterial Binding Assay (BBA). The class given is cell-based, Escherichia coli. Particulars: read-out: Bacterial Binding Assay IC50, LF82/Luciferase strain binding to BSA-(Man)3 coated plates, luminescence. An excerpt: The purpose of the Bacterial Binding Assay (BBA) is to determine the inhibition activity of
selective FimH antagonists on the bacterial strain LF82 binding to the glycoprotein BSA-(Mannose)3.
Below is a list of the Materials used to run the BBA are described below. • 1. LB broth: Supplier: Gibco, #10855 • 2. D-PBS: Supplier: Wisent, #311-425-CL • 3. LB agar plates • 4. 96-well black plate (high binding): Supplier: Costar, #3925 • 5. TopSeal™-A adhesive sealing films; Supplier PerkinElmer, #6005185 • 6. Carbonate-bicarbonate buffer pH 9.6 tablets, Supplier: Medicago, #09-8922-24 • 7. Water, Supplier: Gibco, #15230-162 • 8. Bovine serum albumin (BSA): Supplier: Sigma, #A-7888 • 9. (Man)3-BSA (α1-3, α1-6 Mannotriose-BSA, 1 mg), V-Labs, #NGP1336, lot #HGDX37-169-1 • 10. Tween 20: Supplier: Sigma, #P9416 • 11. Bright-Glo Luciferase Assay System: Supplier: Promega, #E2610 • 12. LF82/Luciferase strain: Invasive ability of an Escherichia coli strain isolated from the ileal mucosa of a patient with Crohn ? disease. Boudeau J, Glasser A L, Masseret E, Joly B, Darfeuille-Michaud A, Infect Immun. 1999, 67(9), 4499-509
Solutions and buffers used to run the BBA are described below. • 1. 0.04M carbonate-bicarbonate buffer (coating buffer) • 2. 40 μg/mL BSA-(Man)3: Dissolve 1 mg of (Man)3-BSA in 25 mL of water. • 3. 4000 μg/mL BSA • 4. 40 μg/mL BSA • 5. 1 μg/mL BSA-(Man)3: 150 μL of 40 μg/mL BSA-(Man)3+5.85 mL of 40 μg/mL BSA • 6. 0.5 μg/mL BSA-(Man)3 in 0.02M carbonate-bicarbonate buffer. • 7. 20 μg/mL BSA in 0.02M carbonate-bicarbonate buffer • 8. Blocking buffer (2% BSA/DPBS): 1 g of BSA in 50 mL D-PBS • 9. 2× binding buffer (0.2% BSA/D-PBS): 5 mL of blocking buffer+45 mL D-PBS. • 10. Washing buffer (D-PBS/0.01% Tween 20): 10 μL of Tween 20 in 100 mL D-PBS. • 11. 1× Bright-Glo Luciferase substrate: Dilute 1:1 the Bright-Glo Luciferase Assay System with D-PBS The experimental protocol to run the BBA is described below.
Overnight culture of LF82/Luciferase strain: Into two Falcon 50 mL tubes, add 20 mL of LB+20 μL of 50 mg/mL Kanamycin and inoculate with a loop from glycerol stock of the LF82/Luciferase strain. Incubate overnight at 37° C. with no shaking.
Glycoprotein coating of 96-well plates: Add 100 μL/well of 0.5-2 μg/mL BSA-(Man)3. 20 μg/mL BSA is used as the control background. Seal plate using an adhesive sealing film and incubate overnight at room temperature. Wash the 96-well plate three times with 150 μL/well of D-PBS, add 170 μL/well of blocking solution and incubate 45 min (minimum) at room temperature.
Preparation of bacterial suspension: Mix the two cultures tubes (40 mL) and perform a 1:10 dilution in LB (900 μl LB+100 μl culture. Measure optical density (OD) of the bacterial cultures. OD1 ˜5×10^8 cells/mL. Centrifuge LF82 culture for 20 min at 3500 rpm at room temperature. Re-suspend bacterial pellet in D-PBS and centrifuge again for 20 min at 3500 rpm. Re-suspend bacterial pellet in D-PBS to obtain a bacterial concentration of 2×10^9 bacteria/mL. Dilute 1/10 in D-PBS to obtain a final bacterial concentration of 2×10^8 bacteria/mL (=107 bacteria/50 μL). Perform 1/10 serial dilutions in LB of each bacterial suspension, plate 10 μL of dilutions on LB agar plates (final dilutions of 10^−7) and incubate overnight at 37° C. and count CFUs to determine the actual bacteria density in the assay.
Bacterial binding assay: Add 147 μL 2× binding buffer to compound plate (containing 3 μL of compound). After blocking step is performed (at least 45 min), wash plates three times with 200 μL/well of D-PBS. With a 100 μL multichannel manual pipettor, add 50 µL/well of compound diluted in 2× binding buffer. With a 100 μL multichannel manual pipettor, add 50 μL/well of bacterial suspension. Agitate at slow speed for 1 min and incubate 40-75 min at room temperature. Wash 5 times with 150 μL/well of washing buffer and then once with D-PBS. Add 100 μL/well of 1× Bright-Glo Luciferase substrate. […]
Turning to `O=S1(=O)c2cc(C#C[C@H]3O[C@H](CO)[C@@H](O)[C@H](O)[C@@H]3O)ccc2-c2ccc(C#C[C@H]3O[C@H](CO)[C@@H](O)[C@H](O)[C@@H]3O)cc21` [Compound 161, (2R,3S,4R,5S,6R)-2-[2-[5,5-dioxo-7-[2-[(2R,3S,4R,5S,6R)-3,4,5-trihydroxy-6-(hydroxymethyl)tetrahydropyran-2-yl]ethynyl]dibenzothiophen-3-yl]ethynyl]-6-(hydroxymethyl)tetrahydropyran-3,4,5-triol], the IC50 was found to be 12 nM.
The same measure for `OC[C@H]1O[C@H](C#Cc2ccc(C#C[C@H]3O[C@H](CO)[C@@H](O)[C@H](O)[C@@H]3O)c(-c3ccccc3)c2)[C@@H](O)[C@@H](O)[C@@H]1O` [Compound 77, (2R,3S,4R,5S,6R)-2-(hydroxymethyl)-6-[2-[3-phenyl-4-[2-[(2R,3S,4R,5S,6R)-3,4,5-trihydroxy-6-(hydroxymethyl)tetrahydropyran-2-yl]ethynyl]phenyl]ethynyl]tetrahydropyran-3,4,5-triol]: 4 nM; for `CC(C)c1cc(C#C[C@H]2O[C@H](CO)[C@@H](O)[C@H](O)[C@@H]2O)ccc1C#C[C@H]1O[C@H](CO)[C@@H](O)[C@H](O)[C@@H]1O` [Compound 103, (2R,3S,4R,5S,6R)-2-(hydroxymethyl)-6-[2-[3-isopropyl-4-[2-[(2R,3S,4R,5S,6R)-3,4,5-trihydroxy-6-(hydroxymethyl)tetrahydropyran-2-yl]ethynyl]phenyl]ethynyl]tetrahydropyran-3,4,5-triol]: 7.4 nM; for `CC1(O)c2cc(C#C[C@H]3O[C@H](CO)[C@@H](O)[C@H](O)[C@@H]3O)ccc2-c2ccc(C#C[C@H]3O[C@H](CO)[C@@H](O)[C@H](O)[C@@H]3O)cc21` [Compound 115, (2R,3S,4R,5S,6R)-2-(hydroxymethyl)-6-[2-[9-hydroxy-9-methyl-7-[2-[(2R,3S,4R,5S,6R)-3,4,5-trihydroxy-6-(hydroxymethyl)tetrahydropyran-2-yl]ethynyl]fluoren-2-yl]ethynyl]tetrahydropyran-3,4,5-triol]: 3.9 nM.
The value for `OC[C@H]1O[C@H](c2ccc(C#C[C@H]3O[C@H](CO)[C@@H](O)[C@H](O)[C@@H]3O)c(F)c2)[C@@H](O)[C@@H](O)[C@@H]1O` [Compound 144] was 235 nM.
For the compound `CC1(O)CCC2(CC1)c1cc(C#C[C@H]3O[C@H](CO)[C@@H](O)[C@H](O)[C@@H]3O)ccc1-c1ccc(C#C[C@H]3O[C@H](CO)[C@@H](O)[C@H](O)[C@@H]3O)cc12` [Compound 204], the IC50 is 0.8 nM.
The value for `O=C(CN1CCCC1=O)c1c(C#C[C@H]2O[C@H](CO)[C@@H](O)[C@H](O)[C@@H]2O)ccc2c1C1(CCNCC1)c1cc(C#C[C@H]3O[C@H](CO)[C@@H](O)[C@H](O)[C@@H]3O)ccc1-2` [Compound 241, 1-[2-[2,7-bis[2-[(2R,3S,4R,5S,6R)-3,4,5-trihydroxy-6-(hydroxymethyl)tetrahydropyran-2-yl]ethynyl]spiro[fluorene-9,4piperidine]-1yl]-2-oxo-ethyl]pyrrolidin-2-one] was 0.03 nM.
The same measure for `COc1c(C#C[C@H]2O[C@H](CO)[C@@H](O)[C@H](O)[C@@H]2O)ccc2c(OC)c(C#C[C@H]3O[C@H](CO)[C@@H](O)[C@H](O)[C@@H]3O)ccc12` [Compound 125, (2R,3S,4R,5S,6R)-2-[2-[1,5-dimethoxy-6-[2-[(2R,3S,4R,5S,6R)-3,4,5-trihydroxy-6-(hydroxymethyl)tetrahydropyran-2-yl]ethynyl]-2-naphthyl]ethynyl]-6-(hydroxymethyl)tetrahydropyran-3,4,5-triol]: 54 nM; for `O=C(Cn1c2cc(C#C[C@H]3O[C@H](CO)[C@@H](O)[C@H](O)[C@@H]3O)ccc2c2ccc(C#C[C@H]3O[C@H](CO)[C@@H](O)[C@H](O)[C@@H]3O)cc21)NCCN1CCOCC1` [Compound 178, 2-[2,7-bis[2-[(2R,3S,4R,5S,6R)-3,4,5-trihydroxy-6-(hydroxymethyl)tetrahydropyran-2-yl]ethynyl]carbazol-9-yl]-N-(2-morpholinoethyl)acetamide]: 3.1 nM.
Regarding `CCCC1(O)c2cc(C#C[C@H]3O[C@H](CO)[C@@H](O)[C@H](O)[C@@H]3O)ccc2-c2ccc(C#C[C@H]3O[C@H](CO)[C@@H](O)[C@H](O)[C@@H]3O)cc21` [Compound 168, (2R,3S,4R,5S,6R)-2-(hydroxymethyl)-6-[2-[9-hydroxy-9-propyl-7-[2-[(2R,3S,4R,5S,6R)-3,4,5-trihydroxy-6-(hydroxymethyl)tetrahydropyran-2-yl]ethynyl]fluoren-2-yl]ethynyl]tetrahydropyran-3,4,5-triol], the IC50 amounted to 3.1 nM.
The same measure for `COc1cc([C@H]2O[C@H](CO)[C@@H](O)[C@H](O)[C@@H]2O)ccc1-c1ccc([C@H]2O[C@H](CO)[C@@H](O)[C@H](O)[C@@H]2O)c(C)c1` [Compound 147]: 134 nM.
The same measure for `Cc1cc(-c2ccc([C@H]3O[C@H](CO)[C@@H](O)[C@H](O)[C@@H]3O)cc2)ccc1[C@H]1O[C@H](CO)[C@@H](O)[C@H](O)[C@@H]1O` [Compound 64]: 15 nM; for `O=C(c1c(C#C[C@H]2O[C@H](CO)[C@@H](O)[C@H](O)[C@@H]2O)ccc2c1C1(CCNCC1)c1cc(C#C[C@H]3O[C@H](CO)[C@@H](O)[C@H](O)[C@@H]3O)ccc1-2)[C@H]1CCCO1` [Compound 233, [2,7-bis[2-[(2R,3S,4R,5S,6R)-3,4,5-trihydroxy-6-(hydroxymethyl)tetrahydropyran-2-yl]ethynyl]spiro[fluorene-9,4piperidine]-1yl]-[(2R)-tetrahydrofuran-2-yl]methanone]: 0.05 nM.
The value for `CN1CCC(Cn2c3cc(C#C[C@H]4O[C@H](CO)[C@@H](O)[C@H](O)[C@@H]4O)ccc3c3ccc(C#C[C@H]4O[C@H](CO)[C@@H](O)[C@H](O)[C@@H]4O)cc32)CC1` [Compound 188, (2R,3S,4R,5S,6R)-2-(hydroxymethyl)-6-[2-[9-[(1-methyl-4-piperidyl)methyl]-7-[2-[(2R,3S,4R,5S,6R)-3,4,5-trihydroxy-6-(hydroxymethyl)tetrahydropyran-2-yl]ethynyl]carbazol-2-yl]ethynyl]tetrahydropyran-3,4,5-triol] was 4.3 nM; that for `Cn1ccc(C(=O)c2c(C#C[C@H]3O[C@H](CO)[C@@H](O)[C@H](O)[C@@H]3O)ccc3c2C2(CCNCC2)c2cc(C#C[C@H]4O[C@H](CO)[C@@H](O)[C@H](O)[C@@H]4O)ccc2-3)n1` [Compound 238, [2,7-bis[2-[(2R,3S,4R,5S,6R)-3,4,5-trihydroxy-6-(hydroxymethyl)tetrahydropyran-2-yl]ethynyl]spiro[fluorene-9,4piperidine]-1yl]-(1-methylpyrazol-3-yl)methanone] was 0.09 nM.
